Results as given in US12516056B2, “Compounds for inhibition of janus kinase 1” (MANKIND PHARMA LTD., priority 2019, dated 2026).
Like-named read-outs stand apart in the source and are kept apart here.

Experiments:
[1] = tested on: IFN-γ production in NK 92 cells by IL-12; experiment: IFN-γ production in NK 92 cells by IL-12 (ELISA); conditions: NK92, IFN-γ secretion, read-out: Cell Based Assay (μM) NK-92/IL-2/IFN-γ
[2] = tested on: STAT5 phosphorylation by IL-2 in HT-2 cells; experiment: STAT5 phosphorylation by IL-2 in HT-2 cells (HTRF); assay type: cell-based; conditions: IL-2 50 U/ml, pSTAT5 HTRF, read-out: Cell Based Assay (μM) HT-2/IL-2/pSTAT5
In short: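 Readout is HTRF detection of phospho-STAT5 in lysates, corrected for signal from unstimulated cells. Before lysis, HT-2 cells starved in 10% FBS medium received compound for 30 min (0.2% DMSO final, 37 °C), followed by 50 U/ml recombinant human IL-2 for 20 min.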

[3] = tested on: STAT5 phosphorylation by GMCSF in TF-1 cells; experiment: JAK cellular assay: STAT5 phosphorylation by GMCSF in TF-1 cells (HTRF); assay type: cell-based; conditions: TF-1 cells, GMCSF 5 ng/ml, pSTAT5 HTRF, read-out: Cell Based Assay (μM) TF-1/GMCSF/pSTAT5
In short: (§1)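 Phospho-STAT3 (IL-6, 30 ng/ml) and phospho-STAT5 (GMCSF, 5 ng/ml) read by HTRF in lysates after 20 min cytokine exposure, minus unstimulated-cell background. Cells were serum-starved overnight, plated at 120,000/well, given compound 30 min at 37 °C beforehand; DMSO 0.2% final.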

[4] = tested on: STAT3 phosphorylation by IL-6 in TF-1 cells; experiment: JAK cellular assay: STAT3 phosphorylation by IL-6 in TF-1 cells (HTRF); assay type: cell-based; conditions: IL-6 30 ng/ml, pSTAT3 HTRF, read-out: Cell Based Assay (μM) TF-1/IL-6/pSTAT3
In short: as §1

Recombinant JAK1 = target: T1, Recombinant JAK1 (Homo sapiens, UniProt P23458); experiment: JAK biochemical assay (LANCE Ultra TR-FRET), JAK1; conditions: recombinant JAK1, TR-FRET; read-out: Biochemical Assay (μM) JAK1
T1 construct: purchased Carna Biosciences
T1 sequence (P23458 whole entry): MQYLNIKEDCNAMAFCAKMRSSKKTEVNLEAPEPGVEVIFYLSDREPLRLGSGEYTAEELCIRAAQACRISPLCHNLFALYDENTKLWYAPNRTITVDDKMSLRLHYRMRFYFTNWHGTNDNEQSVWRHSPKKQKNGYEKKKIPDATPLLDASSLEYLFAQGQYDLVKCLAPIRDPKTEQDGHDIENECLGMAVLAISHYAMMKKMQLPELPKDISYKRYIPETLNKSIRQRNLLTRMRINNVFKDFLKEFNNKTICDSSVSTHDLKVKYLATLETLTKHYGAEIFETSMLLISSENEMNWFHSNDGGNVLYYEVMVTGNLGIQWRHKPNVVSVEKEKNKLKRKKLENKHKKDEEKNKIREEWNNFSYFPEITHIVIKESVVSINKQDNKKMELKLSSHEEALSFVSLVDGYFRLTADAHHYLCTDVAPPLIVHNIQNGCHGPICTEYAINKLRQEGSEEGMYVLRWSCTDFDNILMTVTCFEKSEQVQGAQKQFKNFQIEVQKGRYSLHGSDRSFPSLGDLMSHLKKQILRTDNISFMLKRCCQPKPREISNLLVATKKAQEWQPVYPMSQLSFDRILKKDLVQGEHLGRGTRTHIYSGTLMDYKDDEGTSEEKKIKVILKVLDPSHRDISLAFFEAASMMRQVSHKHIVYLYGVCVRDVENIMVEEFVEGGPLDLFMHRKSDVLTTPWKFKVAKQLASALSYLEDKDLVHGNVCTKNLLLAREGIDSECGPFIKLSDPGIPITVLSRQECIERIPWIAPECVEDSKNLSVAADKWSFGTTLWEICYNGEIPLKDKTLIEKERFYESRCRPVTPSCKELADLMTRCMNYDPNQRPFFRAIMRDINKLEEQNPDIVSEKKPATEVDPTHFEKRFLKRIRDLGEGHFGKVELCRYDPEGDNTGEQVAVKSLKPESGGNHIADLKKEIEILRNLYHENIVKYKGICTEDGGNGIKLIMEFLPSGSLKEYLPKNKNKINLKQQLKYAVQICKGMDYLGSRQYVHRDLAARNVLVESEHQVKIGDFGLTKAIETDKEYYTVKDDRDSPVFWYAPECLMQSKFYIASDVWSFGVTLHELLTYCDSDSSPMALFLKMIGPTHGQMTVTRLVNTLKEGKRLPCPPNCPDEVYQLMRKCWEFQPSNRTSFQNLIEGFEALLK
In short: (§2)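 TR-FRET read-out of ULight substrate phosphorylation by recombinant kinase gives % inhibition relative to vehicle. The assay buffer is HEPES pH 7.5 with EGTA, MgCl2, DTT and Tween-20.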

Recombinant JAK3 = target: T2, Recombinant JAK3 (Homo sapiens, UniProt P52333); experiment: JAK biochemical assay (LANCE Ultra TR-FRET), JAK3; conditions: recombinant JAK3, TR-FRET; read-out: Biochemical Assay (μM) JAK3
T2 construct: purchased Carna Biosciences
T2 sequence (P52333 1-1124): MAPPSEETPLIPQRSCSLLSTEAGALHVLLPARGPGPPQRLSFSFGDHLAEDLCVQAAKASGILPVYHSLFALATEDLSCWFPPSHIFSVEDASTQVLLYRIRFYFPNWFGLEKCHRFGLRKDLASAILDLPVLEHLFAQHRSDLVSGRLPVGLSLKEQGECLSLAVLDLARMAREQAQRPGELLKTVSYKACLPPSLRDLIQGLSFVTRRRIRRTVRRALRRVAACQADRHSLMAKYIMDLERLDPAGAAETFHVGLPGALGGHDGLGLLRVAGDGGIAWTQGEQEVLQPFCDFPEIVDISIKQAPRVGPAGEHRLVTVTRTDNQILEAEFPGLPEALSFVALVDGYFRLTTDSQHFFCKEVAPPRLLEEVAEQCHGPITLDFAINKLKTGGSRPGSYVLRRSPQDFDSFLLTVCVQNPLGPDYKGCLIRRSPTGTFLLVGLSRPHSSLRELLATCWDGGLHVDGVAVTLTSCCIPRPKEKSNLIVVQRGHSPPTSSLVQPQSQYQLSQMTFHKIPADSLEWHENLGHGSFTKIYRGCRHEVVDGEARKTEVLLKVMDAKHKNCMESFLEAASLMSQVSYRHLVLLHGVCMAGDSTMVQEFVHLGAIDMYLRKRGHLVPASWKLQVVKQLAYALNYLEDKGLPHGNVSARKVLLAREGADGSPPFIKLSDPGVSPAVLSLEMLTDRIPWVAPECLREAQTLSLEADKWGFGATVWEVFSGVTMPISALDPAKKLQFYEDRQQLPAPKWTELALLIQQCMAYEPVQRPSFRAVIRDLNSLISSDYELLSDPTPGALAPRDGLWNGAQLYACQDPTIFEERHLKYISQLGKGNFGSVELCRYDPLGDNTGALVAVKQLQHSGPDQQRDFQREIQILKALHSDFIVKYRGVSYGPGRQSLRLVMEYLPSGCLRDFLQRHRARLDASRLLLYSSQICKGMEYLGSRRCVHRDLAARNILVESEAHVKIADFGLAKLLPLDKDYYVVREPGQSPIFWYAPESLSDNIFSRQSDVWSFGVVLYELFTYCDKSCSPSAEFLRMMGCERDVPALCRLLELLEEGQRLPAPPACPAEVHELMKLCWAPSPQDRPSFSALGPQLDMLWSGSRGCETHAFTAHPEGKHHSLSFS
In short: as §2

Recombinant JAK2 = target: T3, Recombinant JAK2 (Homo sapiens, UniProt O60674); experiment: JAK biochemical assay (LANCE Ultra TR-FRET), JAK2; conditions: recombinant JAK2, TR-FRET; read-out: Biochemical Assay (μM) JAK2
T3 construct: purchased Carna Biosciences
T3 sequence (O60674 whole entry): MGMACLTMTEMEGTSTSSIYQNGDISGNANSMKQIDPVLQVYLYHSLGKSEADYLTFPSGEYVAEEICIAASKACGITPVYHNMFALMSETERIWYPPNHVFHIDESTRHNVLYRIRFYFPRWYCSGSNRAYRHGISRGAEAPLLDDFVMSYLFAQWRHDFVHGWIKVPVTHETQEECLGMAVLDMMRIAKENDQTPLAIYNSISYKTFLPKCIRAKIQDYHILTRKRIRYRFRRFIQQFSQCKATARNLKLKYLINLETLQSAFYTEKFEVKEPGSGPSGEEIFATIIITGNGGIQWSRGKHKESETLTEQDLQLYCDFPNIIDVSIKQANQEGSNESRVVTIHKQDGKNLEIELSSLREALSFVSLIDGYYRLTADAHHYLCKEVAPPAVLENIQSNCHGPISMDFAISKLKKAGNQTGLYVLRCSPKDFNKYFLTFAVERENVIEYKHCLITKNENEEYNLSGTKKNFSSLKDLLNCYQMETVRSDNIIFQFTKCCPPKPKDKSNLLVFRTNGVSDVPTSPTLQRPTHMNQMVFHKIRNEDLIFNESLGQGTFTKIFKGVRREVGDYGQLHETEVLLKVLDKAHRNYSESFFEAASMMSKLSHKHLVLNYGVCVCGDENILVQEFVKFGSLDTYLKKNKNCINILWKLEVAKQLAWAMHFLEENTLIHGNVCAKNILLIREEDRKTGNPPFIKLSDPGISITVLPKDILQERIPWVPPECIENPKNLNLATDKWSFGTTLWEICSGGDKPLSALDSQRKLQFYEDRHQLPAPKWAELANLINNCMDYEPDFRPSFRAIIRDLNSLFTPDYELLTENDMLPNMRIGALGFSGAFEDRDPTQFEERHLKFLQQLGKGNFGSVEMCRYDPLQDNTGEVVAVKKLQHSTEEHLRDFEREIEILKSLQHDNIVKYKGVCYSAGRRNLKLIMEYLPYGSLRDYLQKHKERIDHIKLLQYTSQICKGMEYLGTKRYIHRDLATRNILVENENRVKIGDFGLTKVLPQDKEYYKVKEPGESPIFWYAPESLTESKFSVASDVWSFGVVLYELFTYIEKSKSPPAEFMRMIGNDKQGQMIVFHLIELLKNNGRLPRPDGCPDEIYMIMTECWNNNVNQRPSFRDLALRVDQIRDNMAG
In short: as §2

Recombinant TYK2 = target: T4, Recombinant TYK2 (Homo sapiens, UniProt P29597); experiment: JAK biochemical assay (LANCE Ultra TR-FRET), TYK2; conditions: recombinant TYK2, TR-FRET; read-out: Biochemical Assay (μM) TYK2
T4 construct: purchased Carna Biosciences
T4 sequence (P29597 whole entry): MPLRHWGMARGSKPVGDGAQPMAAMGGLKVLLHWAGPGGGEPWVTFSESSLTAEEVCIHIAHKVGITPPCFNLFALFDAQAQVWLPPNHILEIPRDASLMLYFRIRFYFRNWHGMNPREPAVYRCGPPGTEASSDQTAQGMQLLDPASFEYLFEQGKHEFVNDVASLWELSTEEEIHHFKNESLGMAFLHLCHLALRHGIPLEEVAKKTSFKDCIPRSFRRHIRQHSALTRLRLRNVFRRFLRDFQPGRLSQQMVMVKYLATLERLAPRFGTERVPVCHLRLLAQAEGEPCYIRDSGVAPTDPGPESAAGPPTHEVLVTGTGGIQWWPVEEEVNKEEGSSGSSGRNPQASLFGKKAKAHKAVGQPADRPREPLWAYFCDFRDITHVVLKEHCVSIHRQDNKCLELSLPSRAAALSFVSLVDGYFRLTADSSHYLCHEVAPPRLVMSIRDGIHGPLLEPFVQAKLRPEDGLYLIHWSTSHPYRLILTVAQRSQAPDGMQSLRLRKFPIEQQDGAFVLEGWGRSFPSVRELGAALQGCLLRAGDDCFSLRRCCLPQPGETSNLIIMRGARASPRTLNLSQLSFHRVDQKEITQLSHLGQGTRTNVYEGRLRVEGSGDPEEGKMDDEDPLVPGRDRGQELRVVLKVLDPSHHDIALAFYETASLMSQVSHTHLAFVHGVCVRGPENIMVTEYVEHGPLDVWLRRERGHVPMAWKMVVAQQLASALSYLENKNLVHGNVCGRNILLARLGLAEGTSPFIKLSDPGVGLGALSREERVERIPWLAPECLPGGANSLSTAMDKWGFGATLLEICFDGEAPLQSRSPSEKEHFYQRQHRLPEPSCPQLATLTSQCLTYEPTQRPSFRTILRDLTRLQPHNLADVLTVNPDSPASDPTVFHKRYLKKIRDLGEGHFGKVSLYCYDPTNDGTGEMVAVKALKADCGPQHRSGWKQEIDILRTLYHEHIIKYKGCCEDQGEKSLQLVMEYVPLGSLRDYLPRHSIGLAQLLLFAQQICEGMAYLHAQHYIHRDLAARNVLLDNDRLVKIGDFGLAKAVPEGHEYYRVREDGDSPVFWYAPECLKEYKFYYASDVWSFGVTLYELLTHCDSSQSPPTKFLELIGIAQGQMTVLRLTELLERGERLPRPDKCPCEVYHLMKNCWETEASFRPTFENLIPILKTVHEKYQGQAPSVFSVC
In short: as §2

Row | Structure (SMILES) | IC50 [1] [µM] | IC50 ([2]; HT2, HT-2 cells) [µM] | IC50 ([3]; Homo sapiens) [µM] | IC50 ([4]; Homo sapiens, TF-1, TF-1 cells) [µM] | IC50 (Recombinant JAK1) [µM] | IC50 (Recombinant JAK3) [µM] | IC50 (Recombinant JAK2) [µM] | IC50 (Recombinant TYK2) [µM] | IC50 ([2]; HT-2 cells) [µM] | IC50 [3] [µM] | IC50 ([4]; TF-1 cells) [µM]
1 | CCN1CCC([C@](O)(c2ccc(-n3cc(-c4ccnc5[nH]cnc45)cn3)nc2)C(F)(F)F)C1 (stereo partly drawn) [Example 1233, (S)-1-(6-(4-(3H-imidazo[4,5-b]pyridin-7-yl)-1H-pyrazol-1-yl)pyridin-3-yl)-1-(1-ethylpyrrolidin-3-yl)-2,2,2-trifluoroethanol] | > 3 | > 0.5 | > 1 | 0.21 | < 0.1 | < 0.1 | < 0.1 | < 0.5 |  |  | 
2 | COC(c1ccc(-n2cc(-c3ccnc4[nH]cnc34)cn2)nc1)C(F)(F)F (stereo not shown) [Example 1119, 7-(1-(5-(2,2,2-trifluoro-1-methoxyethyl)pyridin-2-yl)-1H-pyrazol-4-yl)-3H-imidazo[4,5-b]pyridine] | 10 | > 1 | > 10 | 1.3 | 0.03 | 0.07 | 0.2 | > 1 |  |  | 
3 | CN1CC(C(O)(c2ccc(-n3cc(-c4ccnc5[nH]cnc45)cn3)nc2)C(F)(F)F)C1 (stereo not shown) [Example 1231, 1-(6-(4-(3H-imidazo[4,5-b]pyridin-7-yl)-1H-pyrazol-1-yl)pyridin-3-yl)-2,2,2-trifluoro-1-(1-methylazetidin-3-yl)ethanol] | > 3 | 0.15 | 1.5 | 0.05 | 0.0003 |  | 0.005 |  |  |  | 
4 | CC(C)N1CCC([C@@](O)(c2ccc(-n3cc(-c4ccnc5[nH]cnc45)cn3)nc2)C(F)(F)F)C1 (stereo partly drawn) [Example 1225, (R)-1-(6-(4-(3H-imidazo[4,5-b]pyridin-7-yl)-1H-pyrazol-1-yl)pyridin-3-yl)-2,2,2-trifluoro-1-(1-isopropylpyrrolidin-3-yl)ethanol] | > 3 | 0.47 | > 1 | 0.16 | 0.0025 | 0.018 | 0.064 | > 1 |  |  | 
5 | CN1CCC([C@@](O)(c2ccc(-n3cc(-c4ccnc5[nH]cnc45)cn3)nc2)C(F)(F)F)C1 (stereo partly drawn) [Example 1235, (R)-1-(6-(4-(3H-imidazo[4,5-b]pyridin-7-yl)-1H-pyrazol-1-yl)pyridin-3-yl)-2,2,2-trifluoro-1-(1-methylpyrrolidin-3-yl)ethanol] | > 1 | 0.55 | > 1 | 0.36 |  |  | > 0.03 | > 1 |  |  | 
6 | CC(C)N1CC(C(O)(c2ccc(-n3cc(-c4ccnc5[nH]cnc45)cn3)nc2)C(F)(F)F)C1 (stereo not shown) [Example 1237, 1-(6-(4-(3H-imidazo[4,5-b]pyridin-7-yl)-1H-pyrazol-1-yl)pyridin-3-yl)-2,2,2-trifluoro-1-(1-isopropylazetidin-3-yl)ethanol] | > 3 | > 0.5 | > 1 | 0.19 |  | 0.005 | 0.01 |  |  |  | 
7 | CC(=O)N1CCC(C(O)(c2ccc(-n3cc(-c4ccnc5[nH]cnc45)cn3)nc2)C(F)(F)F)CC1 (stereo not shown) [Example 1131, 1-(4-(1-(6-(4-(3H-imidazo[4,5-b]pyridin-7-yl)-1H-pyrazol-1-yl)pyridin-3-yl)-2,2,2-trifluoro-1-hydroxyethyl)piperidin-1-yl)ethanone] |  | > 1 | > 10 | > 0.5 | 0.053 | 0.11 | 0.38 | > 1 |  |  | 
8 | OCCC(c1ccc(-n2cc(-c3ccnc4[nH]cnc34)cn2)nc1)C(F)(F)F (stereo not shown) [Example 1154, 3-(6-(4-(3H-imidazo[4,5-b]pyridin-7-yl)-1H-pyrazol-1-yl)pyridin-3-yl)-4,4,4-trifluorobutan-1-ol] |  | > 0.5 | > 1 | > 0.5 | < 0.1 | < 0.1 | < 0.1 | > 0.5 |  |  | 
9 | CNCCOC(c1ccc(-n2cc(-c3ccnc4[nH]cnc34)cn2)nc1)C(F)(F)F (stereo not shown) [Example 1228, 2-(1-(6-(4-(3H-imidazo[4,5-b]pyridin-7-yl)-1H-pyrazol-1-yl)pyridin-3-yl)-2,2,2-trifluoroethoxy)-N-methylethanamine] |  | > 0.5 | > 1 | > 0.5 | < 0.1 | < 0.1 | < 0.1 | > 0.1 |  |  | 
10 | CC(C)S(=O)(=O)CCC(c1ccc(-n2cc(-c3ccnc4[nH]cnc34)cn2)nc1)C(F)(F)F (stereo not shown) [Example 1186, 7-(1-(5-(1,1,1-trifluoro-4-(isopropylsulfonyl)butan-2-yl)pyridin-2-yl)-1H-pyrazol-4-yl)-3H-imidazo[4,5-b]pyridine] |  | > 1 | > 1 | > 0.8 | < 0.1 | > 0.1 | > 0.1 | > 1 |  |  | 
11 | FC(F)(F)[C@H](c1ccc(-n2cc(-c3ccnc4[nH]cnc34)cn2)nc1)C1COC1 (single isomer, unassigned) [Example 1185] |  | > 3 | > 1 | 2 | < 0.1 | > 0.1 | > 0.1 | > 1 |  |  | 
12 | CS(=O)(=O)CC[C@H](c1ccc(-n2cc(-c3ccnc4[nH]cnc34)cn2)nc1)C(F)(F)F [Example 1182, 7-(1-(5-((R)-1,1,1-trifluoro-4-(methylsulfonyl)butan-2-yl)pyridin-2-yl)-1H-pyrazol-4-yl)-3H-imidazo[4,5-b]pyridine] | > 3 | 0.9 | > 1 | 0.35 | 0.015 | 0.041 |  | > 1 |  |  | 
13 | CN1CCC([C@](O)(c2ccc(-n3cc(-c4ccnc5[nH]cnc45)cn3)nc2)C(F)(F)F)C1 (stereo partly drawn) [Example 1234, (S)-1-(6-(4-(3H-imidazo[4,5-b]pyridin-7-yl)-1H-pyrazol-1-yl)pyridin-3-yl)-2,2,2-trifluoro-1-(1-methylpyrrolidin-3-yl)ethanol] | > 1 | 0.47 | > 1 | 0.14 | 0.006 |  |  | 0.67 |  |  | 
14 | CNCCC(c1ccc(-n2cc(-c3ccnc4[nH]cnc34)cn2)nc1)C(F)(F)F (stereo not shown) [Example 1200, 3-(6-(4-(3H-imidazo[4,5-b]pyridin-7-yl)-1H-pyrazol-1-yl)pyridin-3-yl)-4,4,4-trifluoro-N-methylbutan-1-amine] |  |  |  |  | 0.023 | 0.009 | 0.015 | 0.52 | 0.6 | 1 | 0.1
